Data reported in patent publication US4906621A, “Certain 2-carboxypiperidyl-alkylene phosphonic acids and esters thereof useful for the treatment of disorders responsive to N-methyl-D-aspartate receptor blockade” (Ciba-Geigy Corporation, priority 1987, dated 1990).
pIC50: −log10 of the molar value. Values belong to the molecule of their own block, whether it stands above or below them.

What was measured:
[1] = Cook/Davidson conflict model for anxiolytic activity; format: in vivo; conditions: ip; read-out: dose active in the Cook/Davidson test for anxiolytic activity
From the text: Indicative of anxiolytic activity, compounds of the invention are effective in the Cook/Davidson conflict model (Psychopharmacologia 15, 159-168 (1969).

[2] = tested on: mongolian gerbil; assay: mongolian gerbil ischemia model; format: in vivo; conditions: 10 mg/Kg ip, administered either before or after the ischemia episode
From the text: The cerebral antiischemic activity, that is the effect of the compounds of the invention in preventing or reducing brain damage in mammals due to a transient cerebral ischemia (as in a stroke) can be determined in the mongolian gerbil ischemia model, e.g. the model described by T. Kirino, Brain Research 239, 57-69 (1982).
The inhibitory effect on the observed hyperactivity and on the degeneration of neurons in the hippocampus region of the brain following a 5-minute period of ischemia is measured.
The test compound is administered i.p. 15 minutes before the ischemia or 2, 4, and 6 hours post ischemia.

[3] = tested on: DBA/2 mice; assay: audiogenic-induced seizures in DBA/2 mice; format: in vivo; conditions: Mus musculus, ip, 0.75 h, i.p. administration, read-out: ED50 in the audiogenic-induced seizure model
Protocol: Further indicative of the anticonvulsant activity, compounds of the invention are effective in preventing audiogenic-induced seizures in DBA/2 mice (Chapman et al., Arzneim.-Forsch. 34:1261, 1984).
The effect is determined as follows:
Forty-five minutes following compound or vehicle administration, mice are placed individually in a soundproof chamber. After a 30 second accommodation period, the mice are exposed to a sound stimulation of 110 dB for 1 minute or until the appearance of a tonic-clonic seizure. Control seizures consist of an initial wild running phase. The prevention of wild running is indicative of an anticonvulsant effect.
Test compounds in either distilled water solution or in a 3% (w/v) colloidal cornstarch suspension containing 5% (w/v) polyethyleneglycol 400 and 0.34% (w/v) Tween 80, are administered by oral intubation or intraperitoneally in a volume of 10 ml/kg of body weight.

[4] = tested on: NMDA-type excitatory amino acid receptors; assay: inhibition of NMDA-evoked 3H-acetylcholine release from rat striatal tissue slices; format: cell-based; conditions: stimulation with 50 uM NMDA, read-out: IC50 in the in vitro NMDA-evoked 3H-ACh release test
Protocol: The inhibitory effect on the NMDA-type excitatory amino acid receptors is determined in vitro by measuring the inhibition of the NMDA-evoked ^3 H-acetylcholine (^3 H-ACh) release from corpus striatum tissue of rat brain, according to J. Lehmann and B. Scatton, Brain Research 252, 77-89 (1982) and Nature 297, 422-424 (1982).
Antagonists of NMDA-type excitatory amino acid receptors competitively antagonize NMDA-evoked ^3 H-acetylcholine (^3 H-ACh) release from corpus striatum tissue of the brain.
The inhibition of the NMDA-evoked ^3 H-acetylcholine (^3 H-ACh) release from rat striatal tissue slices by a compound of the invention is expressed as % of release of ^3 H-ACh in response to stimulation with 50 uM NMDA compared to control. Tests are two-tailed with a minimum of n=4 in each group. In IC50 values represent the concentration of test compound required to inhibit the NMDA-increased ^3 H-ACh release by 50%.

[5] = relative pharmacological activity of enantiomers (test not specified); conditions: enantiomers of the compound of Example 2

SMILES: O=C(O)[C@H]1C[C@@H](CP(=O)(O)O)CCN1 (relative stereo) [cis-4-phosphonomethyl-2-piperidine-carboxylic acid]
minimal effective dose [1]: ~2 mg/kg
effect on degeneration of cerebral neurons in the hippocampus region of the brain [2]: reduces the degeneration of cerebral neurons
effect on ischemia-induced hyperactivity of the gerbil [2]: inhibits the ischemia-induced hyperactivity

pIC50 [4]: ~5.10
SMILES: O=C(O)[C@@H]1C[C@H](CP(=O)(O)O)CCN1 (relative stereo) [cis-4-phosphonomethyl-2-piperidinecarboxylic acid hyrdochloride]
ED50 [3]: ~1.8 mg/kg

SMILES: O=C(O)[C@H]1C[C@@H](CP(=O)(O)O)CCN1 (single isomer, unassigned) [(+)-cis-4-phosphonomethyl-2-piperidinecarboxylic acid]
pharmacological activity relative to the other enantiomer [5]: less active enantiomer

SMILES: O=C(O)[C@H]1C[C@@H](CP(=O)(O)O)CCN1 (single isomer, unassigned) [(-)-cis-4-phosphonomethyl-2-piperidinecarboxylic acid]
pharmacological activity relative to the other enantiomer [5]: more active enantiomer
